Patent US8952181B2, “Organic semiconductive material precursor containing dithienobenzodithiophene derivative, ink, insulating member, charge-transporting member, and organic electronic device” (Ricoh Company, Ltd., priority 2010, dated 2015)

Columns and labels:
[1] = Solubility in organic solvents; type: physicochemical
Method: The solubility test of Example Compound 1-2 of Example 1 was performed by dissolving Example Compound 1-2 respectively in THF, chloroform, toluene, xylene, mesitylene, diethyl ether, dichloromethane, and ethanol. Example Compound 1-2 was not dissolved in any of the above-described solvents, and cannot form a film by various printing methods.

[2] = TG-DTA thermal analysis (elimination of X-Y on heating); type: physicochemical; conditions: temperature increase rate 5° C./min
Method: A TG-DTA measurement with respect to Example Compound 1 was performed using TG/DTA200 (manufactured by Seiko Instruments is Inc.). […] This was identical with the melting point of the following Example Compound 1-2 described in Japanese Patent Application Laid-Open (JP-A) No. 2011-44686.

[3] = solvent such as THF, toluene, chloroform, xylene, diethyl ether, or dichloromethane

SMILES	solubility in solvent [1, 3]	mass reduction, found value [2] [%]	also measured
C(=C\c1cc2sc3cc4c(cc3c2s1)sc1cc(/C=C/c2ccccc2)sc14)/c1ccccc1 [Example Compound 1-2]	–	–	solubility test ([1]; THF, chloroform, toluene, xylene, mesitylene, diethyl ether, dichloromethane, and ethanol): not dissolved
CC(C)(C)C(=O)OC(Cc1ccccc1)c1cc2sc3cc4c(cc3c2s1)sc1cc(C(Cc2ccccc2)OC(=O)C(C)(C)C)sc14 (centres unmarked) [Example Compound 1]	easily dissolved	29.7	–
CCCCCC(=O)OC(Cc1ccccc1)c1cc2sc3cc4c(cc3c2s1)sc1cc(C(Cc2ccccc2)OC(=O)CCCCC)sc14 (centres unmarked) [Example Compound 2]	easily dissolved	31.4	–
O=C(CC(F)(F)F)OC(Cc1ccccc1)c1cc2sc3cc4c(cc3c2s1)sc1cc(C(Cc2ccccc2)OC(=O)CC(F)(F)F)sc14 (centres unmarked) [Example Compound 3]	–	32.6	–
CCCCCC(=O)OC(Cc1ccc(C)cc1)c1cc2sc3cc4c(cc3c2s1)sc1cc(C(Cc2ccc(C)cc2)OC(=O)CCCCC)sc14 (centres unmarked) [Example Compound 4]	–	30.0	–
CC(=O)OC(Cc1ccc(C)cc1)c1cc2sc3cc4c(cc3c2s1)sc1cc(C(Cc2ccc(C)cc2)OC(C)=O)sc14 (centres unmarked) [Example Compound 5]	–	17.9	–
CCCCCCc1ccc(CC(OC(C)=O)c2cc3sc4cc5c(cc4c3s2)sc2cc(C(Cc3ccc(CCCCCC)cc3)OC(C)=O)sc25)cc1 (centres unmarked) [Example Compound 6]	–	15.1	–
CCCCCCc1ccc(CC(O)c2cc3sc4cc5c(cc4c3s2)sc2cc(C(O)Cc3ccc(CCCCCC)cc3)sc25)cc1 (centres unmarked) [Example Compound 7]	–	4.0	–
CCCCCOC(=O)OC(Cc1ccccc1)c1cc2sc3cc4c(cc3c2s1)sc1cc(C(Cc2ccccc2)OC(=O)OCCCCC)sc14 (centres unmarked) [Example Compound 11]	easily dissolved	33.3	–
COC(Cc1ccccc1)c1cc2sc3cc4c(cc3c2s1)sc1cc(C(Cc2ccccc2)OC)sc14 (centres unmarked) [Example Compound 12]	easily dissolved	13.9	–
CCOC(=O)CC(=O)OC(Cc1ccccc1)c1cc2sc3cc4c(cc3c2s1)sc1cc(C(Cc2ccccc2)OC(=O)CC(=O)OCC)sc14 (centres unmarked) [Example Compound 13]	easily dissolved	35.5	–
O=C(CCl)OC(Cc1ccccc1)c1cc2sc3cc4c(cc3c2s1)sc1cc(C(Cc2ccccc2)OC(=O)CCl)sc14 (centres unmarked) [Example Compound 14]	easily dissolved	26.6	–
O=C(CCC(F)(F)F)OC(Cc1ccccc1)c1cc2sc3cc4c(cc3c2s1)sc1cc(C(Cc2ccccc2)OC(=O)CCC(F)(F)F)sc14 (centres unmarked) [Example Compound 15]	easily dissolved	34.3	–
CCCCCCc1ccc(CC(OC(=O)C(C)=O)c2cc3sc4cc5c(cc4c3s2)sc2cc(C(Cc3ccc(CCCCCC)cc3)OC(=O)C(C)=O)sc25)cc1 (centres unmarked) [Example Compound 16]	easily dissolved	21.1	–
Cc1ccc(-c2ccc(CC(O)c3cc4sc5cc6c(cc5c4s3)sc3cc(C(O)Cc4ccc(-c5ccc(C)cc5)cc4)sc36)cc2)cc1 (centres unmarked) [Example Compound 17]	–	4.0	solubility in solvent ([1]; solvent such as THF or toluene): easily dissolved
CCCCCC(=O)OC(Cc1ccc(-c2ccc(C)cc2)cc1)c1cc2sc3cc4c(cc3c2s1)sc1cc(C(Cc2ccc(-c3ccc(C)cc3)cc2)OC(=O)CCCCC)sc14 (centres unmarked) [Example Compound 18]	easily dissolved	24.2	–
CSC(=S)OC(Cc1ccc(C)cc1)c1cc2sc3cc4c(cc3c2s1)sc1cc(C(Cc2ccc(C)cc2)OC(=S)SC)sc14 (centres unmarked) [Example Compound 23]	–	–	solubility in solvent ([1]; solvent such as THF, toluene, chloroform, xylene, or dichloromethane): easily dissolved
CC(=O)CC(=O)OC(Cc1ccccc1)c1cc2sc3cc4c(cc3c2s1)sc1cc(C(Cc2ccccc2)OC(=O)CC(C)=O)sc14 (centres unmarked) [Example Compound 24]	easily dissolved	25.7	–
